Test results taken from US5583221A, “Substituted fused and bridged bicyclic compounds as therapeutic agents” (Eli Lilly and Company, priority 1995, dated 1996).
Structures can show the parent of a compound that is named as a salt.

Columns and labels:
[1] = tested on: NEUTROPHILS; experiment: neutrophil superoxide anion release; assay type: cell-based; settings: read-out: IC50 of Compounds in Cells, NEUTROPHILS
Description: (§1) To investigate the effect that Formula I compounds have on cell growth and activity, assays are performed such as to determine growth inhibition of cultured tumor cells and cultured keritinocytes, and neutrophil superoxide anion release by well known techniques.
(§2) Table 1 also includes data from testing in a cellular assay known as the "Bleb" assay. In the Bleb assay K562 cells, a human chronic myeloid leukemia cell line, are treated with compound and scored for the appearance of morphologic changes referred to as blebs on the cell surface. […] H. Osada et al., (1988) 41:7, 925.

[2] = tested on: MCF-7; experiment: growth inhibition of cultured tumor cells (MCF-7); assay type: cell-based; settings: Homo sapiens, MCF7, read-out: IC50 of Compounds in Cells, MCF-7
Description: as §1, §2

[3] = tested on: phorbol ester-induced mouse ear edema; experiment: phorbol ester-induced mouse ear edema model; assay type: in vivo
Description: Formula I compounds also have been tested in vivo to determine their antiinflammatory activity. The model used for this testing is the well-known, widely accepted phorbol ester-induced mouse ear edema model wherein the efficacy of a test compound to reduce the edema induced by the phorbol ester is measured.

[4] = tested on: NHEK; experiment: growth inhibition of cultured keritinocytes (NHEK); assay type: cell-based; settings: read-out: IC50 of Compounds in Cells, NHEK
Description: as §1, §2

[5] = tested on: K562 cells; experiment: Bleb assay in K562 cells; assay type: cell-based; settings: Homo sapiens, blebs on the cell surface, read-out: IC50 of Compounds in Cells, BLEB
Description: as §2

[6] = water solubility noted during work-up; assay type: physicochemical; settings: observation during HPLC fraction work-up
Description: A solution of 8-exo-[4-(2-carbophenylmethoxy-6-phenylmethoxybenzoyl)-3,5-bis(phenylmethoxy)benzoyloxy]-9-endo-(4-phenylmethoxybenzamido)tricyclo[5.2.1.0 (2,6)]decane (0.33 g, 0.32 mmol) in 6:1 ethanol/ethyl acetate (35 mL) in a 500 mL Parr bottle was treated with trifluoroacetic acid (0.15 mL) and purged with nitrogen. Pearlman's catalyst (150 mg) was added, and the vessel was charged with hydrogen (50 psi) and shaken on a Parr apparatus for 18 h. The bottle was carefully evacuated of hydrogen and the solution was filtered through Celite®, then the filter cake was washed with ethanol, but not allowed to dry. The filtrate was concentrated in vacuo to a foamy yellow solid, which was dissolved in DMF (0.8 mL) and loaded onto HPLC; conditions: A- 0.1% TFA/5% CH3 CN/H2 O, B- CH3 CN, 100% A to 100% B over one h, 25 mL/min, 41×250 mm C18 column. […] (dec). Rf (2:1 methylene chloride/methanol on silica) 0.50; IR (KBr) 1703, 1635, 1608 cm^-1; ^1 H NMR (d6 -DMSO) d 11.66 (s, 2H), 9.97 (br s, 1H), 9.88 (s, 1H), 8.35 (d, 1H, J=7 Hz), 7.75 (d, 2H, J=9 Hz), 7.38 (d, 1H, J=8 Hz), 7.28 (t, 1H, J=8 Hz), 7.06 (d, 1H, J=8 Hz), 6.83 (s, 2H), 6.79 (d, 2H, J=9 Hz), 4.83 (d, 1H, J=2.5 Hz), 4.11 (m, 1H), 2.25 (d, 1H, J=4 Hz), 2.10-2.20 (m, 1H), 2.07 (br s, 2H), 1.60-2.00 (m, 3H), 1.48 (br s, 2H), 1.10-1.30 (m, 1H), 0.90-1.10 (m, 2H); mass spectrum (FAB): m/z 588. […]

[7] = tested on: K562 cells; settings: previous studies, H. Osada et al. (1988); cited from earlier work

Molecule	IC50 [2] [µM]	antiinflammatory activity: reduction of edema induced by phorbol ester [3]	IC50 [4] [µM]	other results
7-[4-(2-Methoxycarbonyl-6-hydroxybenzoyl)-3,5-dihydroxybenzoyloxy]-2-(hydroxybenzamido)bicyclo[2.2.1]heptane [Example 14]				IC50 [1]: 10 µM
O=C(N[C@@H]1c2ccccc2C[C@H]1OC(=O)c1cc(O)c(C(=O)c2c(O)cccc2C(=O)O)c(O)c1)c1ccc(O)cc1 (relative stereo) [Example 3, anti-1-(4-Hydroxybenzamido)-2-[3,5-dihydroxy-4-(2-carboxy-6-hydroxybenzoyl)benzoyloxy]indane]	71	active	50	
O=C(N[C@@H]1c2ccccc2C[C@@H]1OC(=O)c1cc(O)c(C(=O)c2c(O)cccc2C(=O)O)c(O)c1)c1ccc(O)cc1 (relative stereo) [Example 4, syn-(4-Hydroxybenzamido)-2-[3,5-dihydroxy-4-(2-carboxy-6-hydroxybenzoyl)benzoyloxy]indane]	2.1 to 4		43	
COC(=O)c1cccc(O)c1C(=O)c1c(O)cc(C(=O)O[C@@H]2Cc3ccccc3[C@H]2NC(=O)c2ccc(O)cc2)cc1O (relative stereo) [Example 5]	23	active	5	IC50 [5]: 50 µM
COC(=O)c1cccc(O)c1C(=O)c1c(O)cc(C(=O)O[C@@H]2C3CCN(CC3)C[C@H]2NC(=O)c2ccc(O)cc2)cc1O (relative stereo) [Example 8, anti-4-[4-(2-methoxycarbonyl-6-hydroxybenzoyl)-3,5-dihydroxybenzoyloxy]-3-(4-hydroxybenzamido)-1-azabicyclo[3.2.2]nonane, trifluoroacetic acid salt]	74		92	IC50 [5]: 12.5 µM
O=C(N[C@H]1[C@H]2CC[C@H](C2)[C@H]1OC(=O)c1cc(O)c(C(=O)c2c(O)cccc2C(=O)O)c(O)c1)c1ccc(O)cc1 (relative stereo) [Example 12, syn-2-[4-(2-Carboxy-6-hydroxybenzoyl)-3,5-dihydroxybenzoyloxy]-3-(4-hydroxybenzamido)bicyclo[2.2.1]heptane]		active		
O=C(NC1C2CCC(C2)C1OC(=O)c1cc(O)c(C(=O)c2c(O)cccc2C(=O)O)c(O)c1)c1ccc(O)cc1 (stereo not drawn) [Example 13, anti-2-[4-(2-Carboxy-6-hydroxybenzoyl)-3,5-dihydroxybenzoyloxy]-3-(4-hydroxybenzamido)bicyclo[2.2.1]heptane]		active		
COC(=O)c1cccc(O)c1C(=O)c1c(O)cc(C(=O)OC2C3CCC(C3)C2NC(=O)c2ccc(O)cc2)cc1O (stereo not drawn) [Example 16, anti-2-[4-(2-Methoxycarbonyl-6-hydroxybenzoyl)-3,5-dihydroxybenzoyloxy]-3-(4-hydroxybenzamido)bicyclo[2.2.1]heptane]		active		IC50 [5]: 25 µM; IC50 [1]: 10 µM
O=C(NC1C2CC(C3CCCC32)C1OC(=O)c1cc(O)c(C(=O)c2c(O)cccc2C(=O)O)c(O)c1)c1ccc(O)cc1 (stereo not drawn) [Example 20, 8-exo-[4-(2-Carboxy-6-hydroxybenzoyl)-3,5-dihydroxybenzoyloxy]-9-endo-(4-hydroxybenzamido)tricyclo[5.2.1.0 (2,6)]decane]				water solubility [6]: not water-soluble
O=C(NC1C2CC(C3CCCC32)C1OC(=O)c1cc(O)c(C(=O)c2c(O)cccc2C(=O)O)c(O)c1)c1ccc(O)cc1 (stereo not drawn) [Example 21, 8-endo-[4-(2-Carboxy-6-hydroxybenzoyl)-3,5-dihydroxybenzoyl-oxy]-9-endo-(4-hydroxybenzamido)tricyclo[5.2.1.0 (2,6)]decane]				water solubility [6]: not water-soluble
CN[C@@H]1C[C@H]2O[C@@](C)([C@@H]1OC)n1c3ccccc3c3c4c(c5c6ccccc6n2c5c31)C(=O)NC4 [staurosporine]				phorbol ester-induced blebbing [7]: inhibits
